From patent publication US8900444B2, “Switchable hydrophilicity solvents and methods of use thereof” (Queen's University at Kingston, priority 2009, dated 2014)
“Also recorded” adds a separate entry of the source.

Tests used:
[1] = Regeneration of BA from aqueous BAB using air (Example 1C); type: physicochemical
Method: Switching behavior was studied for an aqueous solution of BAB. A glass vial (4 mL) was prepared, containing distilled water (1.0 mL) and BA (1.0 mL) as a two-phase mixture. CO2 was bubbled through the vial for roughly 30 minutes, until the top layer had disappeared showing that a single-phase solution of BAB in water had been formed.
Air was then bubbled through the same glass vial with the single-phase solution for approximately 5 hours at room temperature to displace CO2 from the solution. The formation of a second layer (hydrophobic BA) was noted.

[2] = Separation of switchable solvent from soybean oil with CO2/carbonated water (Examples 2A, 2C); type: physicochemical
Method: A 4 mL vial was prepared containing 1.0 mL D2O, 0.5 mL BA and 0.5 mL soybean oil. The vial was shaken thoroughly and allowed to settle, showing a 1.0 mL upper layer (soybean oil and BA) and a 1.0 mL lower layer (D2O). ^1H NMR samples (50 μL) were withdrawn from each layer and mixed with methanol-d4 (0.5 mL) containing a dioxane internal standard (51.5 mM). Another sample was withdrawn from the upper layer for ^1H NMR analysis in CDCl3, because soybean oil is not miscible with methanol. The same volume was discarded from the bottom layer to maintain the initial ratio.
CO2 was bubbled through the system for 1.5 h, at which time the top layer appeared to have halved in volume. Using the same system, ^1H NMR analysis was again conducted on both layers, the bottom layer in methanol-d4 and the top layer in CDCl3.
A 1.0 mL portion of the bottom layer was withdrawn and transferred to a new 4.0 mL vial. A magnetic stirrer was added and the vial was stirred at 80° C. for 1 h. Samples were withdrawn from both layers for ^1H NMR analysis in methanol-d4 with reference to the dioxane internal standard.
The switching behavior of BA in the presence of soybean oil was studied qualitatively and by ^1H NMR spectroscopy as shown in FIG. 11. The top spectrum is that of soy oil. The middle spectrum is that of the upper (organic) phase after the mixing of the BA, soy oil and D2O. This upper phase comprises soy oil and BA. The bottom spectrum is that of the upper (organic) phase after the addition of the CO2 trigger and comprises predominantly soy oil and any residual solvent.
The most informative ^1H NMR spectra in this experiment were those showing the separation of the soy oil and BA. Based on the integration of the peak corresponding to BA at 3.17 ppm in these spectra, 96% of the amidine was removed from the upper soybean oil layer after switching to its hydrophilic BAB form. Other spectra (not shown), collected in methanol-d4 with a dioxane internal standard, confirmed the switching behavior presented in Example 1 above, showing 11% retention of BA in the aqueous phase after heating.
It was possible to remove a high percentage of N1,N1,N4,N4-tetraethylbutane-1,4-diamine from the soybean oil be mixing with carbonated water. The percentage removal was 98.65%. In contrast, 96% of BA was removed from the soybean oil.

time of CO2 bubbling until top layer disappeared ([1]; 1.0 mL water + 1.0 mL BA): roughly 30 minutes
time of air bubbling after which second layer was noted ([1]; room temperature): approximately 5 hours
solvent removed from soybean oil after switching to hydrophilic form ([2]; CO2 / carbonated water): 96%
retention of BA in the aqueous phase after heating ([2]; soybean oil experiment, 80 °C, 1 h, dioxane internal standard): 11%
Compound: CCCCN=C(CCCC)N(CCCC)CCCC [BA, N,N,N′-tributylpentanamidine]
miscibility with soybean oil ([2]; neutral hydrophobic form): miscible with soy oil; also recorded: miscible with soybean oil
